In US8119660B2, “Small-molecule inhibitors of the androgen receptor” (The Regents of the University of California, priority 2007, dated 2012):
Residue numbers refer to the chain shown, from its start. “Also recorded” adds a separate entry of the source.

Assays:
[1] = system: prostate glands of mice; assay: Prostate weight in treated male mice; type: in vivo; conditions: 5 times per week for four weeks, BiC 100 mg/kg PO, PP 1 mg/kg IP, or the combination
Method: FIG. 7. […] As a positive control, nine mice were treated with castration for four weeks. Prostate glands were harvested and wet weights determined. […] Error bars represent the standard error of the mean (S.E.M.).
Animals were treated 5 times per week for four weeks. At the end of the study period, animals were sacrificed and prostate tissue weighed. After weighing, the tissue was divided in half for pathological and genetic studies. […] (FIG. 7).

[2] = system: endogenous AR-regulated gene expression, LNCaP cells; assay: qRT-PCR of androgen-responsive genes in LNCaP cells; type: cell-based, human; conditions: No DHT = 1, 3 nM DHT alone or with 1 uM BIC, 100 nM PP or 100 nM HH
Method: (§1) LAPC4 and LNCaP cells were grown in the presence or absence of 3 nM DHT in charcoal-stripped media, with or without the inhibitors. RNA was harvested using an RNAeasy kit (Qiagen) and reverse transcribed (MMLV-RT, Invitrogen). Real-time PCR was carried out on a 7300 Real Time PCR System (Applied Biosystems) using SYBR green as the detecting dye and Rox as the reference dye. The androgen responsive genes kalikrein 3, or PSA (KLK3) [Cleutjens, K. B., et al., Two androgen response regions cooperate in steroid hormone regulated activity of the prostate-specific antigen promoter. J Biol Chem, 1996. 271(11): p. 6379-88; Nelson, P. S., et al., The program of androgen-responsive genes in neoplastic prostate epithelium. Proc Natl Acad Sci USA, 2002. 99(18): p. 11890-5), metalloproteinase 16 (MMP16) (Nelson, P. S., et al., The program of androgen-responsive genes in neoplastic prostate epithelium. Proc Natl Acad Sci USA, 2002. 99(18): p. 11890-5), transmembrane protease serine 2 (TMPRSS2) (Nelson, P. S., et al., The program of androgen-responsive genes in neoplastic prostate epithelium. Proc Natl Acad Sci USA, 2002. 99(18): p. 11890-5; […] Vaarala, M. H., et al., Expression of transmembrane serine protease TMPRSS2 in mouse and human tissues. J Pathol, 2001. 193(1): p. 134-40), FK506-binding immunophilin 51 (FKBP51) (Nelson, P. S., et al., The program of androgen-responsive genes in neoplastic prostate epithelium. Proc Natl Acad Sci USA, 2002. 99(18): p. 11890-5; Amler, L. C., et al., Dysregulated expression of androgen-responsive and nonresponsive genes in the androgen-independent prostate cancer xenograft model CWR22-R1. Cancer Res, 2000. 60(21): p. 6134-41; Velasco, A. M., et al., Identification and validation of novel androgen-regulated genes in prostate cancer. Endocrinology, 2004. 145(8): p. 3913-24; Magee, J. A., et al., Direct, androgen receptor-mediated regulation of the FKBP5 gene via a distal enhancer element. Endocrinology, 2006. 147(1): p. 590-8), G-protein coupled receptor RDC1 homolog, or chemokine orphan receptor 1 (RDC-1) (Nelson, P. S., et al., The program of androgen-responsive genes in neoplastic prostate epithelium. Proc Natl Acad Sci USA, 2002. 99(18): p. 11890-5), NK homeobox family member 3 (Nk×3.1) (Nelson, P. S., et al., The program of androgen-responsive genes in neoplastic prostate epithelium. Proc Natl Acad Sci USA, 2002. 99(18): p. 11890-5; Bieberich, C. J., et al., Prostate-specific and androgen-dependent expression of a novel homeobox gene. J Biol Chem, 1996. 271(50): p. 31779-82; […]) were all normalized to the transcription of the housekeeping ribosomal gene (RPL19). All samples were done in triplicate and separately normalized.

[3] = system: endogenous AR-regulated gene expression, LAPC4 cells; assay: qRT-PCR of androgen-responsive genes in LAPC4 cells; type: cell-based, human; conditions: No DHT = 1, 3 nM DHT alone or with 1 uM BIC, 100 nM PP or 100 nM HH
Method: as §1

[4] = target: T1, endogenous wild-type AR, LAPC4 cells (Homo sapiens, UniProt P10275); assay: PSA-luciferase reporter assay in LAPC4 cells with DHT; type: cell-based; conditions: 3 nM DHT
T1 construct: that each express endogenous AR; endogenous in cells; host or cells: LAPC4
T1 sequence (P10275 1-920): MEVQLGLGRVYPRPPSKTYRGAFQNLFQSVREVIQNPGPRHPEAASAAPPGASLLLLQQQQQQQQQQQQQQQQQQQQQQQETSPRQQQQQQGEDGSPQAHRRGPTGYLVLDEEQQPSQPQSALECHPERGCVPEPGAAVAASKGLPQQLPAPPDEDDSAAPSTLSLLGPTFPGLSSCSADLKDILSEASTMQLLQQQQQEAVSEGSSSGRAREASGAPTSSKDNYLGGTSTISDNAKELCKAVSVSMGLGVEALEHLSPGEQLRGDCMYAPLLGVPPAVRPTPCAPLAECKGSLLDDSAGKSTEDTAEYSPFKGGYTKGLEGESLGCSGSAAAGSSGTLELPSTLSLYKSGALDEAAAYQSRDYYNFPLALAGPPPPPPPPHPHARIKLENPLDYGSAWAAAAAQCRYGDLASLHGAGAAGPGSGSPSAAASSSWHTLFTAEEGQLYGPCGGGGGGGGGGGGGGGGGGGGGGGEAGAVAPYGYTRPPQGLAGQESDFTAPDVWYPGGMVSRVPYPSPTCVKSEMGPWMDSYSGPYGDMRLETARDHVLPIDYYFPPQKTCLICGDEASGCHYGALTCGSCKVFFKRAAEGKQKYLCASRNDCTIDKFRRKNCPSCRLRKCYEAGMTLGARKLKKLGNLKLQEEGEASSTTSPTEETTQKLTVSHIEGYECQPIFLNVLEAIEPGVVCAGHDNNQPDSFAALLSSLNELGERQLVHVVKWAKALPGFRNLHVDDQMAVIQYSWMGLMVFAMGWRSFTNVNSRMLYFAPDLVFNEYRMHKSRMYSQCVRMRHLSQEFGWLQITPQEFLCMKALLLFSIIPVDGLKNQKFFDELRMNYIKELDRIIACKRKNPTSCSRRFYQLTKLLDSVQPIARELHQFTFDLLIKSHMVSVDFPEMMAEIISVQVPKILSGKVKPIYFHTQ
Method: (§2) Cells were transfected with two reporter plasmids, a PSA-luciferase construct (androgen responsive), and an SV40-renilla luciferase construct as an internal control. The following day, the cells were split and drugs added in the presence of 3 nM DHT. Luciferase production was measured the following day (Dual luciferase assay kit, Promega).
(§3) Synergism can be defined as a combination index of less than one, using the non-exclusive assumption described by Chou et al. (Chou, T. C. and P. Talalay, Quantitative analysis of dose-effect relationships: the combined effects of multiple drugs or enzyme inhibitors. Adv Enzyme Regul, 1984. 22: p. 27-55).

[5] = target: T2, endogenous AR with a mutation (T877A), LNCaP cells (Homo sapiens, UniProt P10275, T878A); assay: PSA-luciferase reporter assay in LNCaP cells with DHT; type: cell-based; conditions: for IC50: LNCaP cells, 3 nM DHT
T2 construct: that each express endogenous AR; endogenous in cells; host or cells: LNCaP
T2 sequence (P10275 1-920 T878A): T1 sequence (P10275 1-920) with T878A
Method: as §2, §3

[6] = system: LNCaP cells; assay: Cell proliferation (DNA content, DAPI), LNCaP; type: cell-based, human; conditions: 3 nM DHT, seven days, PP 100 nM, HH 100 nM, BiC 1 μM
From the text: (§4) LN-AR cells were created by retroviral infection of a high-expressing AR vector into LNCaP cells, and proliferate independent of androgen in cell culture, unlike their parental line (Chen, C. D., et al., Molecular determinants of resistance to antiandrogen therapy. Nat Med, 2004. 10(1): p. 33-9). HEK293 cells were used as a control. Cells were transferred to charcoal-stripped media two days before they were split and plated in quadruplicate at a density of approximately 20,000 cells/well in 48-well plates. […] Media were changed every day, using a single preparation to ensure consistent compound concentrations. Proliferation was determined by measuring the DNA content of the cells in each well. Each day, the cells in four wells were fixed in 100% cold methanol, followed by staining for 5 min at RT with 0.2 ng/mL 4′,6-diamidino-2-phenylindole (DAPI) in PBS. The cells were washed once in PBS, then read on a fluorescence plate reader using 365/439 excitation/emission wavelengths. LAPC4 and LNCaP cells proliferated to a much greater degree in the presence of DHT, while LN-AR cells proliferated in the presence and absence of DHT.

[7] = system: LAPC4 cells; assay: Cell proliferation (DNA content, DAPI), LAPC4; type: cell-based, human; conditions: LAPC4, 3 nM DHT, seven days; PP 100 nM, HH 100 nM, BiC 1 μM
From the text: as §4

[8] = system: HEK293 cells; assay: Cell proliferation (DNA content, DAPI), HEK293 control; type: cell-based; conditions: HEK293, seven days; PP 100 nM, HH 100 nM, BiC 1 μM
From the text: as §4

[9] = system: LN-AR cells; assay: Cell proliferation (DNA content, DAPI), LN-AR; type: cell-based, human; conditions: seven days, PP 100 nM, HH 100 nM, BiC 1 μM
From the text: as §4

## CC(O)(CS(=O)(=O)c1ccc(F)cc1)C(=O)Nc1ccc(C#N)c(C(F)(F)F)c1 (stereo not drawn) [BiC, bicalutamide]
[1]
  Reduction of prostate weight: 35%

## C[C@]12CCC(=O)C[C@@H]1CC[C@@H]1[C@@H]2CC[C@]2(C)[C@@H](O)CC[C@@H]12 [DHT, dihydrotestosterone]
[2]
  FKBP51 transcription (normalized to RPL19): 2.15
  KLK3 transcription (normalized to RPL19): 1.89
  MMP16 transcription (normalized to RPL19), androgen-repressed gene: 0.61
  Nkx3.1 transcription (normalized to RPL19): 2.00
  RDC1 transcription (normalized to RPL19), androgen-repressed gene: 0.66
  TMPRSS2 transcription (normalized to RPL19): 3.70
[3]
  FKBP51 transcription (normalized to RPL19): 21.4
  KLK3 transcription (normalized to RPL19): 1.97
  MMP16 transcription (normalized to RPL19), androgen-repressed gene: 0.71
  Nkx3.1 transcription (normalized to RPL19): 1.08
  RDC1 transcription (normalized to RPL19), androgen-repressed gene: 0.63
  TMPRSS2 transcription (normalized to RPL19): 1.13

## O=c1ccc2cc(O[C@@H]3O[C@H](CO)[C@@H](O)[C@H](O)[C@H]3O)c(O)cc2o1 [Esculin]
[4]
  IC50: 831 nM
[5]
  IC50: 62200 nM

## COc1ccc2c3c([nH]c2c1)C(C)=NCC3 [Harmaline]
[5]
  IC50: 1190 nM

## COc1ccc2c(c1)[nH]c1c(C)nccc12 [Harmine]
[4]
  IC50: 80 nM
[5]
  IC50: 1560 nM

## CC(C)(O)C(=O)Nc1ccc([N+](=O)[O-])c(C(F)(F)F)c1 [OH-F, hydroxy-flutamide, reference compound]
[5]; LNCaP, DHT titrated, moderate dose of each inhibitor
  Mode of antagonism: effect on DHT dose-response of PSA-luciferase: DHT overcame the inhibitory effect; also recorded: consistent with a competitive antagonist

## Cc1cc(/C=C/c2ccc3cc(N(C)C)ccc3[n+]2C)c(C)n1-c1ccccc1 [PP, pyrvinium pamoate]
[6]
  Inhibition of cell growth: able to inhibit the growth of all four cell lines; also recorded: exhibited growth-inhibitory properties
[1]
  Reduction of prostate weight: did not produce a statistically significant effect; also recorded: did not significantly reduce prostate size
[7]
  Inhibition of cell growth: able to inhibit the growth of all four cell lines
[8]
  Non-specific growth inhibition of control cells: Neither compound exhibited non-specific growth inhibition
[9]
  Inhibition of androgen-independent cell growth: able to inhibit the growth of all four cell lines; also recorded: blocked growth

## COc1cc2ccc(=O)oc2cc1O [Scopoletin]
[4]
  IC50: 1380 nM
[5]
  IC50: 604000 nM

## Harman
[5]
  IC50: 380 nM
